Laboratory results published in patent publication US11279736B2, “Conformationally-preorganized, MiniPEG-containing gamma-peptide nucleic acids” (CARNEGIE MELLON UNIVERSITY, priority 2011, dated 2022).
pKd: −log10 of the molar value. [RMPγPNA-N] = PNA unit with R-MP-gamma backbone modification (N: the base)

How the values were obtained:
[1] = system: DNA: 3′-[…]-5, X = A, C, G, T (SEQ ID NO: 11); assay: Sequence mismatch discrimination, thermal stability of PNA-DNA duplexes; assay type: binding
Method: (§1) CD, NMR, and X-ray data have shown that γPNAs derived from L-amino acids adopt a right-handed helix, and that the helix becomes more rigid as more γ-chiral units are added in the backbone. One would therefore expect a fully-modified PNA5 to hybridize to DNA and RNA targets with greater sequence selectivity than PNA1. To verify this hypothesis, thermal stabilities of PNA5-DNA and PNA5-RNA duplexes containing perfectly-matched (PM) and single-base mismatched (MM) targets were determined and compared to those from an earlier study with PNA1-DNA and PNA1-RNA duplexes. […] The ΔTm ranges from −17 to −21° C. for PNA5-DNA and −16 to −20° C. for PNA5-RNA containing a single-base mismatch (X=C, G, T), as compared to −10 to −14° C. for PNA1-DNA and −11 to −18° C. for PNA1-RNA duplex (Table 4). The level of sequence discrimination is greater for PNA5-DNA than for PNA1-DNA, and similar, if not slightly better, for PNA5-RNA as compared to PNA1-RNA.

[2] = system: immobilized complementary DNA; assay: Surface plasmon resonance (SPR) hybridization kinetics; assay type: binding; conditions: for association rate constant ka / dissociation rate constant kd: 1:1 binding model; for dissociation rate constant kd: † values approach limits of detection
Method: FIG. 4 illustrates surface plamon resonance (SPR) sensorgrams (solid black lines) and fits (dotted lines) for hybridization of PNA probes to immobilized complementary DNA. Solutions contained 30 nM PNA. Error bars at t=420 sec illustrate standard deviations for three separate trials.
Surface plasmon resonance (SPR) analysis is used to study the hybridization kinetics of ^R-MPγPNA-DNA and ^R-MPγPNA-RNA duplexes. Briefly, SPR was performed as follows. According to one embodiment, the PNA probe was immobilized to the chip while the DNA target was captured from solution. In another embodiment, a biotinylated version of the DNA target is immobilized on a streptavidin-conjugated, carboxymethylated dextran chip at a relatively low surface density (ca. 100 response units) of DNA targets to limit mass transport effects on the association kinetics. Solutions containing 10-50 nM PNA oligomers are allowed to flow over the chip for about 420 seconds, at which point the flow is switched to a PNA-free buffer to allow net dissociation of the hybridized PNA.

[3] = system: complementary RNA strand; assay: UV-melting / van't Hoff analysis of PNA-RNA hybrid duplexes; assay type: binding
Method: (§2) FIGS. 2A-2B illustrate UV-melting profiles of PNA-DNA (FIG. 2A) and PNA-RNA (FIG. 2B) hybrid duplexes at a strand concentration of […] each in 10 mM sodium phosphate buffer at pH 7.4. While both the heating and cooling runs were performed because they both have nearly identical profiles UV-melting for only the heating runs are shown.
A similar pattern is observed for a R-MP-γPNA-RNA duplex, but the observed increase in thermal stability is lower for a R-MP-γPNA-RNA duplex as compared to a R-MP-γPNA-DNA duplex (FIG. 3B). The enhancement in thermal stability of a R-MP-γPNA-RNA duplex is only 3° C. for the first R-MP-γPNA-monomer that is incorporated into the PNA oligomer and this gain in thermal stability reduces to about 1.2° C. per R-MP-γPNA monomer for an oligomer made entirely R-MP-γPNA (PNA5). In contrast the gain in thermal stability is about 2.3° C./unit for R-MP-γPNA-DNA duplexes.
(§3) Further insights related to the contribution of miniPEG to the stability of the PNA-DNA duplex was obtained from van′t Hoff analysis. Data in Table 2 show the thermodynamic parameters associated with hybridization of PNA1 through 5 to a complementary DNA or RNA strand.

[4] = system: RNA: 3′-CGUACAXACU-5, X = A, C, G, U (SEQ ID NO: 12); assay: Sequence mismatch discrimination, thermal stability of PNA-RNA duplexes; assay type: binding
Method: as §1

[5] = Temperature-dependent CD measurements of PNA oligomers; assay type: physicochemical; conditions: 80° C.; 5 μM oligomer, 10 mM sodium phosphate buffer pH 7.4
Method: FIG. 1A illustrates CD spectra of PNA5 and PNA2 (Inset) as a function of temperature. Melting transition (Tm) of PNA2 through 5 as determined by CD, monitored at 260 nm. The oligomer concentration was 5 μM, prepared in 10 mM sodium phosphate buffer at pH 7.4.

[6] = system: complementary DNA strand; assay: UV-melting / van't Hoff analysis of PNA-DNA hybrid duplexes; assay type: binding; conditions: PNA-DNA duplex; for −ΔG° / −ΔH° / −ΔTS°: averages of three trials
Method: as §2
UV-melting experiments were performed to determine the effect of MP on the thermal stability of PNA oligomers following hybridization to DNA or an RNA. FIG. 3A illustrates that the incorporation of a single miniPEG side-chain stabilized a PNA-DNA duplex by 4° C. […] However, increase in thermal stability tapers off to a value of about 2.3° C. per unit for the fully-modified oligomer, that is an oligomer made up of R-MP-γPNA groups only (e.g., PNA5).
as §3

[7] = PNA-RNA duplex, 298 K, UV-melting curve fitting

For “H-GCATGTTTGA-NH2 [PNA5] (all [RMPγPNA-N], methylation of C not given here; C-terminal amide)”, the Tm ([1]; C<>T mismatch) was 47 °C, the “ΔTm between the perfect match and mismatch” value ([1]; C<>T mismatch) was “(−21) ° C” and the Tm ([1]; G<>T mismatch) was 48 °C. For the same substance, the “ΔTm between the perfect match and mismatch” value ([1]; G<>T mismatch) was “(−20) ° C”, the Tm ([1]; T(U)<>T mismatch) was 51 °C and the “ΔTm between the perfect match and mismatch” value ([1]; T(U)<>T mismatch) was “(−17) ° C”. For the same substance, the Tm ([1]; X = A (A-T perfect match)) was 68 °C, the “ΔTm, single-base mismatch (X=C, G, T)” value ([1]; range over mismatches) was −17 to −21 °C and the “association rate constant ka” value ([2]; SPR) was 800000 M⁻¹ s⁻¹. For the same substance, the “dissociation rate constant kd” value ([2]; SPR) was 0.4 × 10^−4 ^† s^−1, the “SPR-derived Kd relative to Kd determined by UV melting experiments” value ([2]; Table 3 versus Table 2, DNA target) was 1200 fold and the “gain in thermal stability per R-MP-γPNA monomer” value ([3]; PNA-RNA duplex, UV-melting) was “about 1.2 °C per R-MP-γPNA monomer”. The “−ΔG°” value [3, 7] was 18.6 kcal/mol, the “−ΔH°” value [3, 7] was 87.2 kcal/mol and the “−ΔTS°” value [3, 7] was 68.6 kcal/mol. The “differential Tm (ΔTm), RNA versus DNA binding” value ([3]; duplex with RNA compared to duplex with DNA) was “identical thermal stability”, the Tm ([4]; C<>T mismatch) was 48 °C and the “ΔTm between the perfect match and mismatch” value ([4]; C<>T mismatch) was “(−20) ° C”. The Tm ([4]; G<>T mismatch) was 52 °C, the “ΔTm between the perfect match and mismatch” value ([4]; G<>T mismatch) was “(−16) ° C” and the Tm ([4]; T(U)<>T mismatch) was 48 °C. The “ΔTm between the perfect match and mismatch” value ([4]; T(U)<>T mismatch) was “(−20) ° C”, the Tm ([4]; X = A (A-T perfect match)) was 68 °C and the “ΔTm, single-base mismatch (X=C, G, T)” value ([4]; range over mismatches) was −16 to −20 °C. For the same substance, the “CD profile / base-stacking at high temperature” value [5] was “distinct CD profile”, the “increase in thermal stability per miniPEG unit” value ([6]; UV-melting) was “about 2.3 °C per unit” and the “−ΔG°” value ([6]; 298 K) was 18.6 ± 0.48 kcal/mol. For the same substance, the “−ΔH°” value ([6]; 298 K) was 88.9 ± 2.63 kcal/mol and the “−ΔTS°” value ([6]; 298 K) was 70.3 ± 2.39 kcal/mol.
In the case of “H-GCATGTTTGA-NH2 [PNA2] (PNA; 1 R-MP-gamma unit; C-terminal amide; modified_base (6)..(6) R-MP-gamma-backbone modified nucleotide)”, the “association kinetics relative to the unmodified PNA” value ([2]; SPR, 30 nM PNA) was “approximately twice as fast”, the “association rate constant ka” value ([2]; SPR) was 970000 M⁻¹ s⁻¹ and the “dissociation rate constant kd” value ([2]; SPR) was 0.00041 s⁻¹. For the same substance, the pKd ([2]; SPR, ratio of dissociation and association rate constants, † values uncertain, read-out: equilibrium dissociation constant Kd) was 9.38, the pKd [3, 7] was 11.92 and the “−ΔG°” value [3, 7] was 16.3 kcal/mol. For the same substance, the “−ΔH°” value [3, 7] was 79.6 kcal/mol, the “−ΔTS°” value [3, 7] was 55.4 kcal/mol and the “CD profile / base-stacking at high temperature” value [5] was “completely denatured”. For the same substance, the pKd ([6]; 298 K, UV melting) was 9.49, the “−ΔG°” value ([6]; 298 K) was 12.9 ± 0.24 kcal/mol and the “−ΔH°” value ([6]; 298 K) was 76.2 ± 4.3 kcal/mol. For the same substance, the “−ΔTS°” value ([6]; 298 K) was 62.9 ± 3.82 kcal/mol.
